{"source": "patent US4308269A", "about": "“Maytansinoids, pharmaceutical compositions thereof and method of use thereof” (Takeda Chemical Industries, Ltd., priority 1979, dated 1981)", "key": {"[1]": {"test_system": "Tetrahymena pyriformis W", "assay": "Antiprotozoal activity, growth inhibition by the serial dilution method", "assay_type": "cell-based", "conditions": "28° C., 44 to 48 hours, pH 7.0", "description": "Antioprotozoal activity of compound (I) was assayed with Tetrahymena pyriformis W as the test organism and a medium composed of 20 g tryptose-peptone (Difco Co.), 1 g yeast extract, 2 g glucose, 1000 ml distilled water, 10 ml 1 M phosphate buffer (pH 7.0) as the assay medium. The micoorganism was incubated at 28° C. for 44 to 48 hours and the growth inhibitory activity of compound (I) was assayed by the serial dilution method."}, "[2]": {"test_system": "melanoma B-16 tumor cells", "assay": "Antitumor activity, B-16 melanoma transplanted intraperitoneally in mice (NCI protocol 1,300), life span prolongation", "assay_type": "in vivo", "conditions": "intraperitoneally once daily for 9 consecutive days", "description": "Therapeutic tests were carried out in mice according to NCI-protocol 1,300, Cancer Chemother, Reports, Part 3, 1972, Vol. 3, No. 2, in which melanoma B-16 tumor cells had been intraperitoneally transplanted, compound (I) being administered intraperitoneally once daily for 9 consecutive days."}}, "data": [{"smiles": "COc1cc2cc(c1Cl)N(C)C(=O)CC(OC(=O)C(N)c1ccccc1)C1(C)OC1C(C)C1CC(O)(NC(=O)O1)C(OC)/C=C/C=C(\\C)C2", "note": "(single isomer, unassigned) [maytansinol 3-α-aminophenylacetate]", "values": [{"measurement": "MIC", "setting": "[1]", "result": "10 to 20", "unit": "µg/mL"}, {"measurement": "Antitumor activities B-16 (T/C%)", "setting": "[2]; dose 100 μg/kg", "result": 208, "unit": "%"}, {"measurement": "Antitumor activities B-16 (T/C%)", "setting": "[2]; dose 400 μg/kg", "result": 208, "unit": "%"}, {"measurement": "Antitumor activities B-16 (T/C%)", "setting": "[2]; dose 800 μg/kg", "result": 208, "unit": "%"}]}]}
